Measurements as given in PubChem BioAssay (NCI).
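Values below derive from 48-hour exposures of cells grown in 96-well plates, with endpoints linearly interpolated between the two concentrations bracketing the appropriate inhibition level. TGI denotes the concentration required for complete inhibition of growth.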

What was measured:
[1] = test system: P388 leukemia; experiment: NCI tumour cell line growth inhibition, 48 h
[2] = test system: RXF-631 renal; experiment: NCI tumour cell line growth inhibition, 48 h

Nc1ccn(C2OC(COP(=O)(O)Oc3ccccc3)C(O)C2O)c(=O)n1 (centres undefined)
TGI [1]: 15.7 µM

Cc1nc(-c2nc([N+](=O)[O-])c([N+](=O)[O-])[nH]2)cs1
TGI [2]: > 100 µM

Cc1ccc2[nH]c3c(C)c4ccncc4c(C)c3c2c1
TGI [1]: 3.09 µM

C=C1C(=O)OC2/C=C(\C)C(O)/C=C\C(C)(O)CC(OC(=O)/C(C)=C/C)C12 (centres undefined)
TGI [2]: > 100 µM
